According to US9045524B2, “Selective caspase inhibitors and uses thereof” (NOVAGENESIS FOUNDATION, priority 2009, dated 2015):
Where two headings read alike, the source gives them in different places.

How the values were obtained:
[1] = test system: Glo3/7; assay: Glo3/7 assay; format: biochemical
[2] = target: Caspase-5 (Homo sapiens (Human), UniProt P51878); assay: Caspase-5 Inhibitor Drug Screening Kit, fluorometric (AFC liberation); format: biochemical; conditions: for IC50: 30-minute incubation at 37° C., approximations of the average values, read-out: Caspase enzymatic activity, IC50 (uM) Caspase 5; for inhibitory activity for caspase-5: at the tested dose-range (1 to 3333 nM)
Caspase-5, sequence (P51878 137-434): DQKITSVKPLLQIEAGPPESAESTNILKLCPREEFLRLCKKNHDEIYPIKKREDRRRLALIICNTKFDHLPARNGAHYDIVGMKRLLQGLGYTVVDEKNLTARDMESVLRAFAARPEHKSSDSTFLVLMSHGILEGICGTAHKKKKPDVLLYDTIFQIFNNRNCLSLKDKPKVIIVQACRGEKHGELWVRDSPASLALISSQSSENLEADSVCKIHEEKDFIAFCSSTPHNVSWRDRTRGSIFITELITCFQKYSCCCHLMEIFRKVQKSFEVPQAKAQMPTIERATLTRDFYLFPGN
Description: (§1) The level of inhibition of caspase-1, -3, -5, -7, -9 activity was determined by comparison of the relative fluorescence intensity in samples with or without the compound.

[3] = target: Caspase-7 (Homo sapiens (Human), UniProt P55210); assay: Caspase-7 Inhibitor Drug Screening Kit, fluorometric (AFC liberation); format: biochemical; conditions: 30-minute incubation at 37° C.; approximations of the average values; read-out: Caspase enzymatic activity, IC50 (uM) Caspase 7
Caspase-7, sequence (P55210 whole entry): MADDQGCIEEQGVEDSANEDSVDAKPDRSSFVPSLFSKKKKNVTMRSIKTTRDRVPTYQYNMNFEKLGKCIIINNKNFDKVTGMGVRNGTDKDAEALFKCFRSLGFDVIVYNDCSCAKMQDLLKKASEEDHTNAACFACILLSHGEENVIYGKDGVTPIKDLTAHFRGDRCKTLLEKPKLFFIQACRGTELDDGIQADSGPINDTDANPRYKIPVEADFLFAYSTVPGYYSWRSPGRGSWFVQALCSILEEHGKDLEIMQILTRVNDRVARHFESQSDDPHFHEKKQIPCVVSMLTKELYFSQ
Description: as §1

[4] = target: Caspase-9 (Homo sapiens (Human), UniProt P55211); assay: Caspase-9 Inhibitor Drug Screening Kit, fluorometric (AFC liberation); format: biochemical; conditions: for IC50: 30-minute incubation at 37° C., approximations of the average values, read-out: Caspase enzymatic activity, IC50 (uM) Caspase 9; for inhibitory activity for caspase-9: at the tested dose-range (1 to 3333 nM)
Caspase-9, sequence (P55211 whole entry): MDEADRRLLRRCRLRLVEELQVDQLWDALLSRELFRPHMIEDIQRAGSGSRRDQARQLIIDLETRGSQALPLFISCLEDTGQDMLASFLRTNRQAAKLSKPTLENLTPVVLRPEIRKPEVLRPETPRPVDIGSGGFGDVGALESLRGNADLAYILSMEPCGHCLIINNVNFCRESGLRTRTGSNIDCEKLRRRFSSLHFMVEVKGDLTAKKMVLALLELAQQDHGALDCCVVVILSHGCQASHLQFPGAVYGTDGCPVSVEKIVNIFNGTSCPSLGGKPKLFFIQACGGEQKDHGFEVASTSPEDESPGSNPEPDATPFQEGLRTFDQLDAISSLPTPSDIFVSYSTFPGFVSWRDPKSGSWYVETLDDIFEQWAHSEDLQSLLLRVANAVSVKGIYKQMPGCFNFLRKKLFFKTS
Description: as §1

[5] = target: Caspase-3 (Homo sapiens (Human), UniProt P42574); assay: Caspase-3 Inhibitor Drug Screening Kit, fluorometric (AFC liberation); format: biochemical
Caspase-3, sequence (P42574 29-277): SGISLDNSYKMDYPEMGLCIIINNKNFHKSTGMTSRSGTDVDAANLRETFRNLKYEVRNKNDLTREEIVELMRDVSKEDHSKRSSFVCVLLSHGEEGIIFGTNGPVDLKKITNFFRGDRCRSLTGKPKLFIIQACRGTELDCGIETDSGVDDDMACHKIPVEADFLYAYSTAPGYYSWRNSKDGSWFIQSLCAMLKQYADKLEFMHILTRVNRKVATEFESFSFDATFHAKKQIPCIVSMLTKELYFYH
Description: as §1

[6] = target: Caspase-1 (Homo sapiens (Human), UniProt P29466); assay: Caspase-1 Inhibitor Drug Screening Kit, fluorometric (AFC liberation); format: biochemical; conditions: for IC50: 30-minute incubation at 37° C., approximations of the average values, read-out: Caspase enzymatic activity, IC50 (uM) Caspase 1; for inhibitory activity for caspase-1: at the tested dose-range (1 to 3333 nM)
Caspase-1, sequence (P29466 120-404): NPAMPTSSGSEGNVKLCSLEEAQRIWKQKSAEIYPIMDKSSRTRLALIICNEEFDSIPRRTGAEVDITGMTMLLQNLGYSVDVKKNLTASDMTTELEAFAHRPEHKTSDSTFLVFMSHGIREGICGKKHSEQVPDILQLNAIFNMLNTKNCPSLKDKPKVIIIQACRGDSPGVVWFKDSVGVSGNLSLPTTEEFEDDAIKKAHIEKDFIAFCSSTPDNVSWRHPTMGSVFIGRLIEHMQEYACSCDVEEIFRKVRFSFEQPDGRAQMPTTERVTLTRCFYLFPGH
Description: as §1

[7] = test system: proteolytic cleavage of PARP (poly ADP-ribose polymerase) in Hela cells; assay: Inhibition of staurosporine-induced PARP cleavage in live Hela cells; format: cell-based; conditions: Hela cells, staurosporine
Description: To test the efficacy of caspase-3 inhibitors at the cellular level, the ability of selected compounds to inhibit the proteolytic cleavage of PARP (poly ADP-ribose polymerase) was evaluated in live Hela cells.
Briefly, in this assay Hela cells are seeded in 96 well plates and incubated for 4 hours with staurosporine, a well characterized inducer of apoptosis, alone or together with different concentrations of compound (50, 25, 10 and 3 uM). After formaldehyde-based fixation, the cells are stained with a fluorescein-labeled anti-cleaved PARP antibody (Cell signaling, Cat#: 9547) and counterstained with Hoechst33342 (Invitrogen, Cat#: H3570) to mark all nuclei. Fluorescence images are taken on a Cellomics™ microscope system (Thermo Scientific, Pittsburgh, USA) with the Hoechst stain in the blue channel and the cleaved PARP antibody stain in the green channel. The percentage of cleaved PARP positive cells is determined by calculating the ratio between nuclei with a cleaved PARP antibody staining above a certain threshold and all (Hoechst positive) nuclei. The efficacy of caspase-3 inhibition is determined by calculating the ratio between cleaved PARP positive cells after staurosporine incubation together with compounds and staurosporine incubation without compounds.

[8] = test system: EAE in C57BL/6 mice; assay: Chronic EAE mouse model (MOG35-55 immunization), daily clinical score and body weight; format: in vivo; set-up: key to Delay in onset of the disease / Reduction in severity of the disease / Reduction in body weight loss: +++: high level improvement; ++: moderate improvement; +: small improvement; −: no improvement; conditions: for Delay in onset of the disease / Reduction in body weight loss / Reduction in severity of the disease: average overall effects on the EAE model, i.p.
Description: The aim of this study was to verify the effectiveness of compounds in a chronic mouse animal model of EAE. EAE is a good proof-of-principle model of neurodegeneration since it encompasses degeneration or destruction of practically all the cells in the central nervous system, includes most major immunomodulatory components, and is able to maintain normal innate regenerative functions in the animal. This is a standard model (Antel J P et al., J Neurosci Res. 1997, 50: 345-353) used mainly to mimic the course evolution of Multiple Sclerosis (MS) in humans, and is commonly used for studying disease mechanisms and testing potential therapies. EAE is induced by immunization with myelin proteins, leading to development of myelin-specific T cells. These autoreactive T cells traffic into CNS parenchyma where they initiate an inflammatory cascade through recruitment of other cells such as monocytes and neutrophils. Accumulation of immune cells within CNS leads to myelin damage, axonal loss and clinical deficit in affected animals. EAE can be induced in a variety of species and strains of animals [mice, Rat, marmoset monkey, rhesus macaques] using various CNS antigens [Myelin Oligodendrocyte Glycoprotein (MOG), proteolipid protein (PLP) and myelin basic protein (MBP)]. Seven to 8 week old female C57BL/6 mice were purchased from Charles River Laboratories, and housed at MISPRO™ animal facility for one week before experimentation for adaptation to the new environment. All proper animal experimentation and ethics approvals were obtained prior to the start of any experiments. Mice were immunized subcutaneously with 100 μg of MOG35-55 (Sheldon Biotechnology Centre, McGill University) in CFA containing 5 mg/ml of desiccated (killed and dried) Mycobacterium tuberculosis H37Ra (Difco, Inc), at two sites on the back. The mice were then injected with 200 ng of pertussis toxin (List Biological Laboratories, Inc) in PBS intraperitoneally on days 0 and 2 using 25 gauge needles and scored daily using an EAE clinical scale as detailed below (Touil T et al., J Neurol Sci. 2008, 271:191-202; Antel J P et al., 1997, supra; Owens T et al., Curr Pharm Des. 2005, 1:1031-1037).
EAE was clinically assessed throughout the experiments by daily scoring using a scale from 0 to 5 as follows: partial limp tail, 0.5; full limp tail, 1; limp tail and waddling gait, 1.5; paralysis of one hind limb, 2; paralysis of one hind limb and partial paralysis of other hind limb, 2.5; paralysis of both hind limbs, 3; ascending paralysis, 3.5; paralysis of trunk, 4; moribund, 4.5; death, 5. In all the EAE models a body weight loss is always associated with the clinical signs. This body weight loss is associated with the loss of the function and the paralysis of the muscle (atrophy inducing loss of weight). For animals showing a clinical sign of 2 or more, the food and the water were presented inside the cage to facilitate eating and drinking.
At the onset of clinical signs of EAE, the mice were treated with 200 μl of Compound 51, 53, 57, 59, 101, 104, 105, 111 or 123 dissolved in 2.5% Dimethyl sulfoxide (DMSO) in PBS, while placebo groups were treated with 2.5% Dimethyl sulfoxide (DMSO) in PBS only, by intraperitoneal injection at different time of the clinical evolution.

[9] = 30-minute incubation at 37° C., approximations of the average values, read-out: Caspase enzymatic activity, IC50 (uM) Caspase 3
[10] = FIG. 2, i.p. from day 10 to 16 post immunization, versus placebo
[11] = FIG. 4, administration for 15 days from day 12 post-immunization, versus placebo

Row | SMILES | IC50 [1] [µM] | IC50 [2] [µM] | IC50 [3] [µM] | IC50 [4] [µM] | IC50 [5, 9] [µM] | IC50 [6] [µM] | further results
1 | CC(C)(C)OC(=O)C[C@@H](/C=C/S(=O)(=O)c1ccccc1)NC(=O)OC(C)(C)C [Compound 36, Boc-Asp(O-tBu)VSphenyl] | > 50 | > 3.33 | > 3.33 | > 3.33 | > 2 | > 3.33 | 
2 | CC(C)[C@H](NC(=O)[C@H](Cc1ccc2ccccc2n1)NC(=O)[C@H](CC(=O)O)NC(=O)OCc1ccccc1)C(=O)N[C@H](/C=C/S(C)(=O)=O)CC(=O)O [Compound 55, Z-Asp-Ala(2′-quinolyl)-Val-Aspmethyl vinyl sulfone] | 0.1 | > 10 | 1.4 | > 3.33 |  | > 10 | inhibitory activity for caspase-5 [2]: No significant inhibitory activity; effectivity in inhibiting PARP cleavage [7]: showing effectivity especially relative to DEVD-fmk; inhibitory activity for caspase-9 [4]: No significant inhibitory activity; inhibitory activity for caspase-1 [6]: No significant inhibitory activity
3 | CC(C)[C@H](NC(=O)OCc1ccccc1)C(=O)N[C@H](/C=C/S(C)(=O)=O)CC(=O)O [Compound 61, z-Val-AspVSmethyl] | 50 | > 3.33 | > 3.33 | > 3.33 | > 3.33 | > 3.33 | activity against caspase-3 [5]: abolished completely the activity
4 | CC(C)[C@H](NC(=O)[C@H](Cc1ccc2ccccc2n1)NC(=O)[C@H](CC(=O)O)NC(=O)OCc1ccccc1)C(=O)N[C@H](/C=C/S(=O)(=O)c1ccccc1)CC(=O)O [Compound 63, Z-Asp-Ala(2′-quinolyl)-Val-Aspphenyl vinyl sulfone] | 0.9 | > 3.33 | 1.8 | > 3.33 | 0.04 | > 3.33 | inhibitory activity for caspase-5 [2]: No significant inhibitory activity; inhibitory activity for caspase-9 [4]: No significant inhibitory activity; selectivity of Caspase-3 over Caspase-7 based on IC50 values ([5]; IC50 caspase-7 versus caspase-3): ~50 fold; inhibitory activity for caspase-1 [6]: No significant inhibitory activity
5 | CC(C)[C@H](NC(=O)[C@H](Cc1ccc2ccccc2n1)NC(=O)[C@H](CC(=O)O)NC(=O)OCc1ccccc1)C(=O)N[C@H](/C=C/S(=O)(=O)Oc1ccccc1)CC(=O)O [Compound 65, Z-Asp-Ala(2′-quinolyl)-Val-Aspphenoxy vinyl sulfone] | 0.2 | > 3.33 | 0.4 | 0.3 | 0.01 | 1.2 | 
6 | CC(C)[C@H](NC(=O)[C@@H](NC(=O)[C@H](CC(=O)O)NC(=O)OCc1ccccc1)C1Cc2ccccc2C1)C(=O)N[C@H](/C=C/S(=O)(=O)C(C)C)CC(=O)O [Compound 68, Z-Asp-Indanylglycine-Val-Aspisopropyl Vinyl Sulfone] | 1.1 | > 3.33 | 1.5 | > 3.33 | 0.2 | > 3.33 | 
7 | CC(C)[C@H](NC(=O)C(Cc1ccc2ccccc2n1)NC(=O)[C@H](CC(=O)O)NC(=O)OCc1ccccc1)C(=O)N[C@H](/C=C/S(=O)(=O)c1ccccc1)CC(=O)O (stereo partly drawn) [Compound 70, Z-Asp-(D,L Ala(2′-quinolyl))-Val-Aspphenyl Vinylsulfone] | 20 | > 10 | > 10 | > 10 | 0.3 | > 3.33 | 
8 | CC(C)[C@H](NC(=O)[C@H](Cc1c[nH]c2ccccc12)NC(=O)[C@H](CC(=O)O)NC(=O)OCc1ccccc1)C(=O)N[C@H](/C=C/S(C)(=O)=O)CC(=O)O [Compound 88, Z-Asp-Trp-Val-Aspmethyl vinyl sulfone] | 0.7 | > 3.33 | 1.1 | > 3.33 | 0.04 | 0.7 | IC50 ([5]; read-out: IC50 caspase-3): 0.03 to 0.09 µM
9 | CC(C)[C@H](NC(=O)[C@H](Cc1ccc(OC(C)(C)C)cc1)NC(=O)OCc1ccccc1)C(=O)N[C@@H](C)C(=O)N[C@H](/C=C/S(=O)(=O)c1ccccc1)CC(=O)OC(C)(C)C [Compound 95, Z-Tyr(OtBu)- Val-Ala-Asp (OtBu) phenyl vinyl sulfone] |  |  |  |  |  |  | effects on the clinical course of EAE ([8]; FIG. 3, i.p. from day 14 to 19 post immunization, versus placebo): ameliorating effects
10 | COC(=O)C[C@@H](/C=C(\Cl)S(C)(=O)=O)NC(=O)[C@@H](NC(=O)[C@@H](NC(=O)[C@H](CC(=O)OC)NC(=O)OCc1ccccc1)c1ccccc1)C(C)C [Compound 104, Z-Asp(β-methyl)-phenylglycine-Val-Asp(β-methyl)achlorovinyl Methylsulfone] |  |  |  |  |  |  | Disease onset [8, 10]: delayed; Loss of body weight [8, 10]: did not show and significant difference compared to placebo; severity of the disease [8, 10]: reduced significantly at the early stage of the disease; Delay in onset of the disease [8]: ++; Reduction in body weight loss [8]: −; Reduction in severity of the disease [8]: +
11 | COC(=O)C[C@@H](/C=C(\Cl)S(C)(=O)=O)NC(=O)[C@@H](NC(=O)[C@@H](NC(=O)[C@H](CC(=O)OC)NC(=O)OCc1ccccc1)C1Cc2ccccc2C1)C(C)C [Compound 105, Z-Asp(β-methyl)-indanylglycine-Val-Asp(β-methyl)achlorovinyl Methylsulfone] |  |  |  |  |  |  | Disease onset [8, 10]: delayed; Loss of body weight [8, 10]: less than placebo; severity of the disease [8, 10]: reduced significantly at the early stage of the disease; Delay in onset of the disease [8]: ++; Reduction in body weight loss [8]: ++; Reduction in severity of the disease [8]: +
12 | COC(=O)CC[C@H](NC(=O)[C@H](CC(=O)OC)NC(=O)OCc1ccccc1)C(=O)N[C@H](C(=O)N[C@@H](CC(=O)OC)C(=O)CF)C(C)C [zDEVD-FMK, z-D(OMe)E(OMe)VD(OMe)FMK, reference compound] |  |  |  |  |  |  | onset of the disease [8, 11]: delayed the onset; severity of the disease [8, 11]: reduced the severity of the disease
